Experimental data published in patent publication US20180353462A1, “[…] AGENTS […] FLAVONOID DERIVATIVES TARGETING KINASES, SIRTUINS AND ONCOGENIC AGENTS FOR THE TREATMENT OF CANCERS” (priority 2015, published 2018).

target: T1, CK2a2 (Homo sapiens, UniProt P19784); experiment: Kinase competition binding assay, CK2a2; settings: Table 1 kinase panel
T1 construct: made in house
Experimental: (§1) Cannabis flavonoids and their analogs were subjected to kinase inhibition assay. The compounds were first screened at a single concentration of 10 μM in the primary assay. […]. To determine the kd or IC50 values, competition binding assays were established, authenticated and executed as described previously. Fabian et al., “A Small Molecule-Kinase Interaction Map For Clinical Kinase Inhibitors.”, Nat Biotechnol, 23(3):329-36, Epub (2005). See also, Karaman et al., “A Quantitative Analysis Of Kinase Inhibitor Selectivity”, Nat. Biotechnol. […] For most assays, kinases were fused to T7 phage strains (Fabian, supra) and for the other assays, kinases were produced in HEK-293 cells after which they were tagged with DNA for quantitative PCR detection. In general, full-length constructs were used for small, single domain kinases, and catalytic domain constructs for large multi-domain kinases. The binding assays utilized streptavidin-coated magnetic beads treated with biotinylated small molecule ligands for 30 minutes at room temperature which generated affinity resins for the kinase assays. The liganded beads were blocked with excess biotin and washed with blocking buffer (SeaBlock (Pierce), 1% BSA, 0.05% Tween 20, 1 mM DTT) to remove unbound ligand and to reduce non-specific phage binding. […] Test compounds were prepared as 40× stocks in 100% DMSO and diluted directly into the assay (Final DMSO concentration=2.5%). All reactions were performed in polypropylene 384-well plates in a final volume of 0.04 ml. […] The beads were then re-suspended in elution buffer (1×PBS, 0.05% Tween 20, 0.5 μM non-biotinylated affinity ligand) and incubated at room temperature with shaking for 30 minutes. The kinase concentration in the eluates was measured by quantitative PCR. An illustration of the kinase interaction process is presented below. Kd/IC50 values were determined using a standard dose response curve using the hill equation. Curves were fitted using a non-linear least square fit with the Levenberg-Marquardt algorithm.
(§2) The compound(s) were screened at 10 μM and results for primary screen binding interactions are reported as ‘% Ctrl’, where lower numbers indicate stronger hits in the matrix.

| SMILES | IC50 |
| --- | --- |
| COc1cc(-c2cc(=O)c3c(O)cc(O)c(C/C=C(\C)CCC=C(C)C)c3o2)ccc1O [FBL-03C] | 19 nM |
| COc1cc(-c2cc(=O)c3c(O)c(CC=C(C)C)c(O)cc3o2)ccc1O [FBL-03B] | 477 nM |
| COc1cc(-c2cc(=O)c3c(O)cc(O)c(CC=C(C)C)c3o2)ccc1O [FBL-03G] | 9.7 nM |
| COc1cc(-c2cc(=O)c3c(O)c(C/C=C(\C)CCC=C(C)C)c(O)cc3o2)ccc1O [FBL-03A] | 350 nM |
| COc1ccc(-c2cc(=O)c3c(O)c(C/C=C(\C)CCC=C(C)C)c(O)cc3o2)cc1OC [FBL-03D] | > 30000 nM |

target: T2, SIRT-2 (Homo sapiens, UniProt Q8IXJ6); experiment: Inhibition of sirtuins, SIRT-2; type: biochemical; settings: Table 3 SIRT
T2 sequence (Q8IXJ6 1-389): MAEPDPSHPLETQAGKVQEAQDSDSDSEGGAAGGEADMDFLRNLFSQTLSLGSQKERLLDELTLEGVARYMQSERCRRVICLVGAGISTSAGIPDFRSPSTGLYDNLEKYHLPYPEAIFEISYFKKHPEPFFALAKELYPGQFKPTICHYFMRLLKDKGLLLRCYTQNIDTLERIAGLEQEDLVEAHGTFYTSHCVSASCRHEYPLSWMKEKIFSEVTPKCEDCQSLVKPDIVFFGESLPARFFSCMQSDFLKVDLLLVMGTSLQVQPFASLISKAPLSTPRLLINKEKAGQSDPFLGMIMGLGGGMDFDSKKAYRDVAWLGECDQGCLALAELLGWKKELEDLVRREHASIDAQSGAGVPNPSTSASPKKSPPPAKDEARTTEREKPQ
Text: (§3) Inhibition of Sirtuins, Matrix Metalloproteinase, Bromodomains was Also Confirmed Using Standard Protocols and the Results are Present in Table 2.

| SMILES | IC50 |
| --- | --- |
| COc1cc(-c2cc(=O)c3c(O)cc(O)c(C/C=C(\C)CCC=C(C)C)c3o2)ccc1O [FBL-03C] | 14 µM |
| COc1cc(-c2cc(=O)c3c(O)c(CC=C(C)C)c(O)cc3o2)ccc1O [FBL-03B] | 10.8 µM |
| COc1cc(-c2cc(=O)c3c(O)cc(O)c(CC=C(C)C)c3o2)ccc1O [FBL-03G] | 24.1 µM |
| COc1cc(-c2cc(=O)c3c(O)c(C/C=C(\C)CCC=C(C)C)c(O)cc3o2)ccc1O [FBL-03A] | 2.57 µM |
| COc1ccc(-c2cc(=O)c3c(O)c(C/C=C(\C)CCC=C(C)C)c(O)cc3o2)cc1OC [FBL-03D] | 2.38 µM |

target: T3, PASK (Homo sapiens, UniProt Q96RG2); experiment: Kinase competition binding assay, PASK; settings: Table 1 kinase panel
T3 construct: made in house
Experimental: as §1, §2

| SMILES | IC50 |
| --- | --- |
| COc1cc(-c2cc(=O)c3c(O)cc(O)c(C/C=C(\C)CCC=C(C)C)c3o2)ccc1O [FBL-03C] | > 20000 nM |
| COc1cc(-c2cc(=O)c3c(O)c(CC=C(C)C)c(O)cc3o2)ccc1O [FBL-03B] | 2060 nM |
| COc1cc(-c2cc(=O)c3c(O)cc(O)c(CC=C(C)C)c3o2)ccc1O [FBL-03G] | 116 nM |
| COc1cc(-c2cc(=O)c3c(O)c(C/C=C(\C)CCC=C(C)C)c(O)cc3o2)ccc1O [FBL-03A] | > 20000 nM |
| COc1ccc(-c2cc(=O)c3c(O)c(C/C=C(\C)CCC=C(C)C)c(O)cc3o2)cc1OC [FBL-03D] | > 30000 nM |

tested on: U87 (Glioma); experiment: WST-1 anticancer cell proliferation assay, U87; type: cell-based; settings: 72 hours
Experimental: Bioactivity of the above-described compounds has been verified by an anticancer cell proliferation assay using the WST-1 (4-[3-(4-iodophenyl)-2-(4-nitrophenyl)-2H-5-tetrazolio]-1, 3-benzene disulfonate) colorimetric assay by Roche Life Sciences®. Anticancer activity was tested against several standard cancer cell lines including brain, breast, Kaposi sarcoma, leukemia, lung, melanoma, tenosynovial giant cell tumor, ovarian, pancreatic, colon and prostate cancer. Cells were trypsinized and plated into 96 well plates in 50 μl of media and incubated overnight. The next day approximately 18 hours after plating, 50 μl of media containing the required flavonoid-based pharmaceutical composition was added per well. Cells were plated at a density so that 72 hours post drug addition, the cells will be in log phase (500)-2000 cells/well). The compounds and extracts were solubilized in Dimethyl sulfoxide (DMSO). The cells are allowed to proliferate for 72 hours 37° C. in humidified atmosphere of 5% CO2. The experiment is terminated using WST-1 (Roche®) 10 μl per well and absorbance is read at 450 nm %690 nm. The effect of drugs on growth is assessed as percent of cell viability. The IC50 values were determined from the extract dose versus control growth curves using Graphpad Prism® software. All experiments were carried out in duplicate and the mean results determined.

| SMILES | IC50 |
| --- | --- |
| COc1cc(-c2cc(=O)c3c(O)cc(O)c(C/C=C(\C)CCC=C(C)C)c3o2)ccc1O [FBL-03C] | 12.5 µM |
| COc1cc(-c2cc(=O)c3c(O)c(CC=C(C)C)c(O)cc3o2)ccc1O [FBL-03B] | 6.2 µM |
| COc1cc(-c2cc(=O)c3c(O)cc(O)c(CC=C(C)C)c3o2)ccc1O [FBL-03G] | 5.46 µM |
| COc1cc(-c2cc(=O)c3c(O)c(C/C=C(\C)CCC=C(C)C)c(O)cc3o2)ccc1O [FBL-03A] | 34 µM |

target: T4, PIM-1 (Homo sapiens, UniProt P11309); experiment: Kinase competition binding assay, PIM-1; settings: Table 1 kinase panel
T4 construct: full-length constructs were used for small, single domain kinases; T7 phage fusion (most assays) or DNA tag for qPCR (HEK-293-made kinases); made in house
Experimental: as §1, §2

| SMILES | IC50 |
| --- | --- |
| COc1cc(-c2cc(=O)c3c(O)cc(O)c(C/C=C(\C)CCC=C(C)C)c3o2)ccc1O [FBL-03C] | > 1000 nM |
| COc1cc(-c2cc(=O)c3c(O)cc(O)c(CC=C(C)C)c3o2)ccc1O [FBL-03G] | 78 nM |
| COc1cc(-c2cc(=O)c3c(O)c(C/C=C(\C)CCC=C(C)C)c(O)cc3o2)ccc1O [FBL-03A] | > 20000 nM |
| COc1ccc(-c2cc(=O)c3c(O)c(C/C=C(\C)CCC=C(C)C)c(O)cc3o2)cc1OC [FBL-03D] | > 30000 nM |

target: T5, SIRT-3 (Homo sapiens, UniProt Q9NTG7); experiment: Inhibition of sirtuins, SIRT-3; type: biochemical; settings: Table 3 SIRT
T5 sequence (Q9NTG7 1-399): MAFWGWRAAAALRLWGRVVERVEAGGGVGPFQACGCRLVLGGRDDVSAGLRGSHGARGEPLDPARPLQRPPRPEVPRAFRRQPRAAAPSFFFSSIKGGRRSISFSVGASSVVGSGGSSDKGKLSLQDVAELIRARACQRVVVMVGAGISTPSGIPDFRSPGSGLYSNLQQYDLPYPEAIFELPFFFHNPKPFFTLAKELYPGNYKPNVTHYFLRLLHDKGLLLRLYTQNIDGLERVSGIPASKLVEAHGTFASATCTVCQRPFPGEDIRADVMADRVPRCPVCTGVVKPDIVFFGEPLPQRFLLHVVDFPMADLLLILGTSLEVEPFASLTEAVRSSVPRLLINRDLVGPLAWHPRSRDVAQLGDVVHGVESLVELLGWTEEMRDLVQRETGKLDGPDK
Text: as §3

| SMILES | IC50 |
| --- | --- |
| COc1cc(-c2cc(=O)c3c(O)cc(O)c(C/C=C(\C)CCC=C(C)C)c3o2)ccc1O [FBL-03C] | 65.4 µM |
| COc1cc(-c2cc(=O)c3c(O)c(CC=C(C)C)c(O)cc3o2)ccc1O [FBL-03B] | 77 µM |
| COc1cc(-c2cc(=O)c3c(O)cc(O)c(CC=C(C)C)c3o2)ccc1O [FBL-03G] | 66.4 µM |
| COc1cc(-c2cc(=O)c3c(O)c(C/C=C(\C)CCC=C(C)C)c(O)cc3o2)ccc1O [FBL-03A] | 94.9 µM |

target: EFGR(L858R, T7790M); experiment: Kinase competition binding assay, EFGR(L858R, T7790M); settings: Table 1 kinase panel
Experimental: as §1, §2

| SMILES | IC50 |
| --- | --- |
| COc1cc(-c2cc(=O)c3c(O)cc(O)c(C/C=C(\C)CCC=C(C)C)c3o2)ccc1O [FBL-03C] | 680 nM |
| COc1cc(-c2cc(=O)c3c(O)c(CC=C(C)C)c(O)cc3o2)ccc1O [FBL-03B] | > 1000 nM |
| COc1cc(-c2cc(=O)c3c(O)cc(O)c(CC=C(C)C)c3o2)ccc1O [FBL-03G] | > 1000 nM |
| COc1cc(-c2cc(=O)c3c(O)c(C/C=C(\C)CCC=C(C)C)c(O)cc3o2)ccc1O [FBL-03A] | > 20000 nM |
| COc1ccc(-c2cc(=O)c3c(O)c(C/C=C(\C)CCC=C(C)C)c(O)cc3o2)cc1OC [FBL-03D] | > 30000 nM |
